Measured values taken from PubChem BioAssay (NCI).
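These data come from cells grown in 96-well plates and exposed to compound for 48 hours at five concentrations. The concentration for full growth arrest is given as TGI.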

What was measured:
Experiment in all cases: growth of human tumour cells (NCI), 48 h
A549 NSCLC = system: A549 NSCLC
SNB-75 CNS = system: SNB-75 CNS
SK-MEL-2 melanoma = system: SK-MEL-2 melanoma
MCF7 breast = system: MCF7 breast
SF-295 CNS = system: SF-295 CNS
SK-MEL-5 melanoma = system: SK-MEL-5 melanoma
HS 578T breast = system: HS 578T breast
OVCAR-8 ovarian = system: OVCAR-8 ovarian
LOX IMVI melanoma = system: LOX IMVI melanoma
SF-539 CNS = system: SF-539 CNS
HL-60(TB) leukemia = system: HL-60(TB) leukemia
786-0 renal = system: 786-0 renal
MALME-3M melanoma = system: MALME-3M melanoma
SR leukemia = system: SR leukemia
UO-31 renal = system: UO-31 renal
HCC-2998 colon = system: HCC-2998 colon
SK-OV-3 ovarian = system: SK-OV-3 ovarian
SNB-19 CNS = system: SNB-19 CNS
HCT-116 colon = system: HCT-116 colon
NCI/ADR-RES ovarian = system: NCI/ADR-RES ovarian
A498 renal = system: A498 renal
SW-620 colon = system: SW-620 colon
KM12 colon = system: KM12 colon
MDA-MB-435 = system: MDA-MB-435
MOLT-4 leukemia = system: MOLT-4 leukemia
IGROV1 ovarian = system: IGROV1 ovarian
SN12C renal = system: SN12C renal
COLO 205 colon = system: COLO 205 colon
MDA-MB-231 breast = system: MDA-MB-231 breast
RXF 393 renal = system: RXF 393 renal
OVCAR-3 ovarian = system: OVCAR-3 ovarian
HT29 colon = system: HT29 colon
CCRF-CEM leukemia = system: CCRF-CEM leukemia
NCI-H522 lung = system: NCI-H522 lung
HOP-62 NSCLC = system: HOP-62 NSCLC
HOP-92 NSCLC = system: HOP-92 NSCLC
PC-3 prostate = system: PC-3 prostate
MDA-N = system: MDA-N
TK-10 renal = system: TK-10 renal
UACC-257 melanoma = system: UACC-257 melanoma
OVCAR-4 ovarian = system: OVCAR-4 ovarian
SK-MEL-28 melanoma = system: SK-MEL-28 melanoma
M14 melanoma = system: M14 melanoma
HCT-15 colon = system: HCT-15 colon
U251 CNS = system: U251 CNS
CAKI-1 renal = system: CAKI-1 renal
ACHN renal = system: ACHN renal
NCI-H23 lung = system: NCI-H23 lung
EKVX NSCLC = system: EKVX NSCLC
OVCAR-5 ovarian = system: OVCAR-5 ovarian
UACC-62 melanoma = system: UACC-62 melanoma
DU-145 prostate = system: DU-145 prostate
NCI-H226 lung = system: NCI-H226 lung
NCI-H460 lung = system: NCI-H460 lung
SF-268 CNS = system: SF-268 CNS
BT-549 breast = system: BT-549 breast
RPMI-8226 leukemia = system: RPMI-8226 leukemia
K-562 leukemia = system: K-562 leukemia

## Cc1cc(O)c(C=NC(=S)c2ccncc2)c(=O)o1
A549 NSCLC
  TGI: > 100 µM
SNB-75 CNS
  TGI: > 100 µM
SK-MEL-2 melanoma
  TGI: > 100 µM
MCF7 breast
  TGI: > 100 µM
SF-295 CNS
  TGI: > 100 µM
SK-MEL-5 melanoma
  TGI: > 100 µM
HS 578T breast
  TGI: > 100 µM
OVCAR-8 ovarian
  TGI: > 100 µM
LOX IMVI melanoma
  TGI: > 100 µM
SF-539 CNS
  TGI: > 100 µM
HL-60(TB) leukemia
  TGI: > 100 µM
786-0 renal
  TGI: > 100 µM
MALME-3M melanoma
  TGI: > 100 µM
SR leukemia
  TGI: > 100 µM
UO-31 renal
  TGI: > 100 µM
HCC-2998 colon
  TGI: > 100 µM
SK-OV-3 ovarian
  TGI: > 100 µM
SNB-19 CNS
  TGI: > 100 µM
HCT-116 colon
  TGI: > 100 µM
NCI/ADR-RES ovarian
  TGI: > 100 µM
A498 renal
  TGI: > 100 µM
SW-620 colon
  TGI: > 100 µM
KM12 colon
  TGI: > 100 µM
MDA-MB-435
  TGI: > 100 µM
MOLT-4 leukemia
  TGI: > 100 µM
IGROV1 ovarian
  TGI: > 100 µM
SN12C renal
  TGI: > 100 µM
COLO 205 colon
  TGI: > 100 µM
MDA-MB-231 breast
  TGI: > 100 µM
RXF 393 renal
  TGI: > 100 µM
OVCAR-3 ovarian
  TGI: > 100 µM
HT29 colon
  TGI: > 100 µM
CCRF-CEM leukemia
  TGI: > 100 µM
NCI-H522 lung
  TGI: > 100 µM
HOP-62 NSCLC
  TGI: > 100 µM
HOP-92 NSCLC
  TGI: > 100 µM
PC-3 prostate
  TGI: > 100 µM
MDA-N
  TGI: > 100 µM
TK-10 renal
  TGI: > 100 µM
UACC-257 melanoma
  TGI: > 100 µM
OVCAR-4 ovarian
  TGI: > 100 µM
SK-MEL-28 melanoma
  TGI: > 100 µM
M14 melanoma
  TGI: > 100 µM
HCT-15 colon
  TGI: > 100 µM
U251 CNS
  TGI: > 100 µM
CAKI-1 renal
  TGI: > 100 µM
ACHN renal
  TGI: > 100 µM
NCI-H23 lung
  TGI: > 100 µM
EKVX NSCLC
  TGI: > 100 µM
OVCAR-5 ovarian
  TGI: > 100 µM
UACC-62 melanoma
  TGI: > 100 µM
DU-145 prostate
  TGI: > 100 µM
NCI-H226 lung
  TGI: > 100 µM
NCI-H460 lung
  TGI: > 100 µM
SF-268 CNS
  TGI: > 100 µM
BT-549 breast
  TGI: > 100 µM

## O=C(Cc1cc(=O)oc2cc(O)ccc12)N/N=C/c1ccc(N(CCCl)CCCl)cc1
A549 NSCLC
  TGI: 32 µM
SNB-75 CNS
  TGI: 38.5 µM
SK-MEL-2 melanoma
  TGI: > 100 µM
MCF7 breast
  TGI: 41.8 µM
SF-295 CNS
  TGI: 34.3 µM
SK-MEL-5 melanoma
  TGI: 27.7 µM
RPMI-8226 leukemia
  TGI: 43.6 µM
HS 578T breast
  TGI: 57.3 µM
OVCAR-8 ovarian
  TGI: 29.4 µM
LOX IMVI melanoma
  TGI: 36.4 µM
SF-539 CNS
  TGI: 35.6 µM
HL-60(TB) leukemia
  TGI: 37.6 µM
786-0 renal
  TGI: 37.3 µM
MALME-3M melanoma
  TGI: 40.9 µM
SR leukemia
  TGI: 40.5 µM
UO-31 renal
  TGI: 46.2 µM
HCC-2998 colon
  TGI: > 100 µM
SNB-19 CNS
  TGI: 42.4 µM
HCT-116 colon
  TGI: 30.2 µM
NCI/ADR-RES ovarian
  TGI: > 100 µM
A498 renal
  TGI: 41.2 µM
SW-620 colon
  TGI: > 100 µM
KM12 colon
  TGI: > 100 µM
MDA-MB-435
  TGI: 47.7 µM
K-562 leukemia
  TGI: 82.1 µM
MOLT-4 leukemia
  TGI: 94.6 µM
IGROV1 ovarian
  TGI: 41.9 µM
SN12C renal
  TGI: 41.3 µM
COLO 205 colon
  TGI: 72 µM
MDA-MB-231 breast
  TGI: 33.3 µM
RXF 393 renal
  TGI: 31 µM
OVCAR-3 ovarian
  TGI: 33.1 µM
HT29 colon
  TGI: 45.1 µM
CCRF-CEM leukemia
  TGI: 74.7 µM
NCI-H522 lung
  TGI: 45 µM
HOP-62 NSCLC
  TGI: 41.4 µM
HOP-92 NSCLC
  TGI: 43.8 µM
PC-3 prostate
  TGI: 35.2 µM
MDA-N
  TGI: 63 µM
UACC-257 melanoma
  TGI: 63.1 µM
OVCAR-4 ovarian
  TGI: 87.3 µM
SK-MEL-28 melanoma
  TGI: 28.6 µM
M14 melanoma
  TGI: 37.8 µM
HCT-15 colon
  TGI: > 100 µM
U251 CNS
  TGI: 34.1 µM
CAKI-1 renal
  TGI: 31.7 µM
ACHN renal
  TGI: 32.7 µM
NCI-H23 lung
  TGI: 69.4 µM
EKVX NSCLC
  TGI: 44.1 µM
OVCAR-5 ovarian
  TGI: 55 µM
DU-145 prostate
  TGI: 41 µM
NCI-H226 lung
  TGI: 35 µM
NCI-H460 lung
  TGI: 29.4 µM
SF-268 CNS
  TGI: 30.4 µM
BT-549 breast
  TGI: 30.8 µM

## CNC(=O)c1ccc(C(=O)NCCCCCN(O)C(=O)CCC(=O)NCCCCCN(O)C(=O)CCC(=O)NCCCCCN(O)C(C)=O)c(O)c1O
A549 NSCLC
  TGI: > 100 µM
SNB-75 CNS
  TGI: > 100 µM
SK-MEL-2 melanoma
  TGI: > 100 µM
MCF7 breast
  TGI: > 100 µM
SF-295 CNS
  TGI: > 100 µM
SK-MEL-5 melanoma
  TGI: > 100 µM
RPMI-8226 leukemia
  TGI: > 100 µM
HS 578T breast
  TGI: > 100 µM
OVCAR-8 ovarian
  TGI: > 100 µM
LOX IMVI melanoma
  TGI: > 100 µM
SF-539 CNS
  TGI: > 100 µM
HL-60(TB) leukemia
  TGI: > 100 µM
786-0 renal
  TGI: > 100 µM
MALME-3M melanoma
  TGI: > 100 µM
UO-31 renal
  TGI: > 100 µM
HCC-2998 colon
  TGI: > 100 µM
SK-OV-3 ovarian
  TGI: > 100 µM
SNB-19 CNS
  TGI: > 100 µM
HCT-116 colon
  TGI: > 100 µM
NCI/ADR-RES ovarian
  TGI: > 100 µM
A498 renal
  TGI: > 100 µM
SW-620 colon
  TGI: > 100 µM
KM12 colon
  TGI: > 100 µM
MDA-MB-435
  TGI: > 100 µM
K-562 leukemia
  TGI: > 100 µM
IGROV1 ovarian
  TGI: > 100 µM
SN12C renal
  TGI: > 100 µM
COLO 205 colon
  TGI: > 100 µM
MDA-MB-231 breast
  TGI: > 100 µM
RXF 393 renal
  TGI: > 100 µM
OVCAR-3 ovarian
  TGI: > 100 µM
HT29 colon
  TGI: > 100 µM
CCRF-CEM leukemia
  TGI: 31 µM
NCI-H522 lung
  TGI: > 100 µM
HOP-62 NSCLC
  TGI: > 100 µM
HOP-92 NSCLC
  TGI: > 100 µM
PC-3 prostate
  TGI: > 100 µM
MDA-N
  TGI: > 100 µM
TK-10 renal
  TGI: > 100 µM
UACC-257 melanoma
  TGI: > 100 µM
OVCAR-4 ovarian
  TGI: > 100 µM
SK-MEL-28 melanoma
  TGI: > 100 µM
M14 melanoma
  TGI: > 100 µM
HCT-15 colon
  TGI: > 100 µM
U251 CNS
  TGI: > 100 µM
CAKI-1 renal
  TGI: > 100 µM
ACHN renal
  TGI: > 100 µM
NCI-H23 lung
  TGI: > 100 µM
OVCAR-5 ovarian
  TGI: > 100 µM
UACC-62 melanoma
  TGI: > 100 µM
DU-145 prostate
  TGI: > 100 µM
NCI-H226 lung
  TGI: > 100 µM
NCI-H460 lung
  TGI: > 100 µM
SF-268 CNS
  TGI: > 100 µM
BT-549 breast
  TGI: > 100 µM
